Key:
c-FLIP promoter = c-FLIP promoter luciferase assay in fluoxetine-treated NSCs; assay type: cell-based, rat; conditions: fluoxetine 20 μm
Description: All animal used were treated in accordance with the Animal Care and Use Committee guideline at Taipei Veterans General Hospital. Adult Sprague-Dawley rats (8 weeks old, 250 g) were anesthetized with intraperitoneal phenobarbital (Sigma, USA). The location of their brains was mapped: then, the brain was surgically separated from the hippocampus region with the procedure. Tissues from the hippocampus of the adult SD rats were dissociated and incubated in Hank's balanced salt solution (HBSS) containing collagenase (78 units/ml) and hyaluronidase (38 units/ml) for 10 mins at 37° C. The tissues were then mechanically dissected and placed in a trypsin solution (1.33 mg/ml) at 37° C. for another 10 mins. Dissociated cells were then centrifuged at 150 g for 5 mins. The enzyme solution was then removed and replaced with serum-free culture media composed of Dulbecco modified Eagle medium (DMEM) and F-12 nutrient (1:1) including insulin (25 μg/mL), transferrin (100 μg/mL), progesterone (20 nM), putrescine (60 μM), sodium selenite (30 nM), and human […] epidermal growth factor (EGF) 20 ng/mL and fibroblast growth factor-basic (bFGF) 20 ng/mL (R&D Systems, Minneapolis, Minn.). Viable cells were counted by trypan blue exclusion and plated as 5000 cells/200 μL per well in 96-well plates (Corning, Acton, Mass.) with no substrate pretreatment. […]

c-FLIP [1] = assay: Protein levels of c-FLIP and pro-caspases in fluoxetine-treated NSCs (Western, immunostaining); assay type: cell-based, rat
Description: All animal used were treated in accordance with the Animal Care and Use Committee guideline at Taipei Veterans General Hospital. Adult Sprague-Dawley rats (8 weeks old, 250 g) were anesthetized with intraperitoneal phenobarbital (Sigma, USA). The location of their brains was mapped: then, the brain was surgically separated from the hippocampus region with the procedure. Tissues from the hippocampus of the adult SD rats were dissociated and incubated in Hank's balanced salt solution (HBSS) containing collagenase (78 units/ml) and hyaluronidase (38 units/ml) for 10 mins at 37° C. The tissues were then mechanically dissected and placed in a trypsin solution (1.33 mg/ml) at 37° C. for another 10 mins. Dissociated cells were then centrifuged at 150 g for 5 mins. The enzyme solution was then removed and replaced with serum-free culture media composed of Dulbecco modified Eagle medium (DMEM) and F-12 nutrient (1:1) including insulin (25 μg/mL), transferrin (100 μg/mL), progesterone (20 nM), putrescine (60 μM), sodium selenite (30 nM), and human […] epidermal growth factor (EGF) 20 ng/mL and fibroblast growth factor-basic (bFGF) 20 ng/mL (R&D Systems, Minneapolis, Minn.). Viable cells were counted by trypan blue exclusion and plated as 5000 cells/200 μL per well in 96-well plates (Corning, Acton, Mass.) with no substrate pretreatment.
The pGL3-FLIP was obtained from based on T. Bartke et al., Oncogene 20 (2001) 571-580. The c-FLIP promoter deletion constructs pGL3-FLIP978, pGL3-FLIP696, pGL3-FLIP414 and pGL3-FLIP132 were generated by PCR amplification of corresponding DNA sequences from pGL3-FLIP using the following forward primers 5′-[…] […]
An avidin-biotin complex method was used for the immunohistochemical staining in the differentiated NSCs. […] Immunoreactive signals were detected with a mixture of biotinylated rabbit antimouse IgG and Fluoesave (Calbiochem, La Jolla, Calif., USA) under immunofluorescent microscope (Olympus FV300).

c-FLIP [2] = assay: c-FLIP mRNA expression in fluoxetine-treated NSCs (real-time RT-PCR); assay type: cell-based, rat; conditions: FL-treated NSCs
Description: All animal used were treated in accordance with the Animal Care and Use Committee guideline at Taipei Veterans General Hospital. Adult Sprague-Dawley rats (8 weeks old, 250 g) were anesthetized with intraperitoneal phenobarbital (Sigma, USA). The location of their brains was mapped: then, the brain was surgically separated from the hippocampus region with the procedure. Tissues from the hippocampus of the adult SD rats were dissociated and incubated in Hank's balanced salt solution (HBSS) containing collagenase (78 units/ml) and hyaluronidase (38 units/ml) for 10 mins at 37° C. The tissues were then mechanically dissected and placed in a trypsin solution (1.33 mg/ml) at 37° C. for another 10 mins. Dissociated cells were then centrifuged at 150 g for 5 mins. […] Viable cells were counted by trypan blue exclusion and plated as 5000 cells/200 μL per well in 96-well plates (Corning, Acton, Mass.) with no substrate pretreatment.
For real-time RT-PCR, the total RNA was extracted using the RNAeasy kit (Qiagen, Valencia, Calif., USA) as previously described C. […] The quantification in the unknown samples was performed by the LightCycler Relative Quantification Software version 3.3 (Roche Molecular Systems, Alameda, Calif., USA). […]

[3] = Bile duct microdialysis with HPLC-UV of unbound cefoperazone in rat bile; assay type: in vivo; conditions: male, Sprague-Dawley, bile microdialysate (bile duct), 360 min following cefoperazone intravenous administration (30 mg/kg), read-out: cefoperazone concentration in microdialysate from rat biliary duct
Description: Adult, male Sprague-Dawley rats (280-350 g) were obtained from the Laboratory Animal Center at National Yang-Ming University (Taipei, Taiwan). These animals were specifically pathogen-free and were allowed to acclimate to their environmentally controlled quarters (24±1° C. and 12:12 h light-dark cycle) for at least 5 days before the experiments began. At the start of experiments, the rats were anesthetized with urethane 0.8 g/ml and chloralose 0.08 g/ml ([…], i.p.). Throughout the experimental period, anesthesia was maintained by administering one quarter of the initial dose at each hour. The experimental animals were kept warm with a heating pad throughout the experiments.
The HPLC system consisted of a chromatographic pump (BAS PM-80, Bioanalytical System, West Lafayette, Ind., USA), an on-line injector (CMA/160, Stockholm, Sweden) equipped with a 20 μl sample loop and a UV detector (Soma S-3702, Tokyo, Japan). […] Output signal from the HPLC-UV was recorded using an EZChrom chromatographic data system (Scientific Software, San Ramon, Calif., USA). […]
For in vivo recovery, normal saline solution containing cefoperazone (50 or 100 μg/ml) were pumped through the probes at a constant flow rate (2 μl/min) using the infusion pump (CMA/100). After a stabilization period of 2 h, the inlet (C^in) and outlet (C^out) concentrations of cefoperazone were determined by HPLC. […]

[4] = different concentrations of fluoxetine treatment

SMILES: CNCCC(Oc1ccc(C(F)(F)F)cc1)c1ccccc1 (stereo not drawn) [FL, fluoxetine]
- c-FLIP promoter (−414 to −133 bp) region activity (c-FLIP promoter): Activates
- protein expression of c-FLIP (c-FLIP [1]; FL-treated NSCs): up-regulated
- protein level of inactive caspase 3 (pro-form) (c-FLIP [1]; [4]): not decreased
- protein level of inactive caspase 8 (pro-form) (c-FLIP [1]; [4]): not decreased
- mRNA expression of c-FLIP (c-FLIP [2]): up-regulated

SMILES: CCN1CCN(C(=O)N[C@@H](C(=O)N[C@@H]2C(=O)N3C(C(=O)O)=C(CSc4nnnn4C)CS[C@H]23)c2ccc(O)cc2)C(=O)C1=O [cefoperazone]
- concentration at 360 min [3]: 27800 ng/mL

Reference: US20090105562A1, “SYSTEM AND METHODS FOR SCREENING OR ANALYZING TARGETS” (TAIPEI VETERANS GENERAL HOSPITAL, priority 2007, published 2009)
